# Article PMC7044277 (Nature Communications, 2020)
# Where “and” joins values, the source holds several entries; their conditions need not be identical. Equal entries are not always repeated.
# What was measured:
# Format in all cases: cell-based
# DRD2 S1975.46G = target: T1, DRD2 S1975.46G (Homo sapiens, UniProt P14416, S197G); test: Gαi/o-mediated cAMP inhibition (GloSensor), mutant; conditions: DRD2 Ser197^5.46Gly; G-protein assay
# T1 construct: expressed in transfected cells; host or cells: HEK293T (ATCC CRL-11268)
# T1 sequence (P14416 whole entry S197G): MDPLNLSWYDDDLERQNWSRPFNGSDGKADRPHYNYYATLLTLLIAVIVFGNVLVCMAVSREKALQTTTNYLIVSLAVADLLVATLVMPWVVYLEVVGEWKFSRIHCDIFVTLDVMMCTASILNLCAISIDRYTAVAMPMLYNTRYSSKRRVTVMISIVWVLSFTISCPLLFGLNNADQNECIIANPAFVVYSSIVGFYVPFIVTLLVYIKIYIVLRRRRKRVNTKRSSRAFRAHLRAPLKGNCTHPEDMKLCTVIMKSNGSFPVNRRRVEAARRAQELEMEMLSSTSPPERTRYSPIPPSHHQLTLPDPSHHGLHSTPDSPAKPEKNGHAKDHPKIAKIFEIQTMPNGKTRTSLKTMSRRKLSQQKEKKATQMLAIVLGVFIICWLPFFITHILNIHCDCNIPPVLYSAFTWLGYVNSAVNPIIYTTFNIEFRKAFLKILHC
# DRD1 = DRD1 (Homo sapiens, UniProt P21728); test: β-arrestin2 recruitment (Tango); conditions: agonist mode
# Chain of DRD1 (P21728 whole entry): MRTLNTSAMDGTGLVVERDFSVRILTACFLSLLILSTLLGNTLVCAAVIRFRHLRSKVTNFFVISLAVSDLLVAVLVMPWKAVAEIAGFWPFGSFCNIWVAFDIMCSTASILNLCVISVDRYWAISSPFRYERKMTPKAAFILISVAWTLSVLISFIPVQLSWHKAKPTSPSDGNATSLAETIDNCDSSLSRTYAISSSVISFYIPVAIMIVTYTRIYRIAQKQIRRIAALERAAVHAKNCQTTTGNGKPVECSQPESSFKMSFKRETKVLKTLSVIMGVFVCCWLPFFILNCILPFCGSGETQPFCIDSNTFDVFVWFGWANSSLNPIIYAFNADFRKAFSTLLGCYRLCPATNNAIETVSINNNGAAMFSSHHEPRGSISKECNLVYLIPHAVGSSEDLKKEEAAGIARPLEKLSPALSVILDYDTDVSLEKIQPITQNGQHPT
# DRD5 = DRD5 (Homo sapiens, UniProt P21918); test: β-arrestin2 recruitment (Tango); conditions: Fig_S10e, single replicates
# Chain of DRD5 (P21918 whole entry): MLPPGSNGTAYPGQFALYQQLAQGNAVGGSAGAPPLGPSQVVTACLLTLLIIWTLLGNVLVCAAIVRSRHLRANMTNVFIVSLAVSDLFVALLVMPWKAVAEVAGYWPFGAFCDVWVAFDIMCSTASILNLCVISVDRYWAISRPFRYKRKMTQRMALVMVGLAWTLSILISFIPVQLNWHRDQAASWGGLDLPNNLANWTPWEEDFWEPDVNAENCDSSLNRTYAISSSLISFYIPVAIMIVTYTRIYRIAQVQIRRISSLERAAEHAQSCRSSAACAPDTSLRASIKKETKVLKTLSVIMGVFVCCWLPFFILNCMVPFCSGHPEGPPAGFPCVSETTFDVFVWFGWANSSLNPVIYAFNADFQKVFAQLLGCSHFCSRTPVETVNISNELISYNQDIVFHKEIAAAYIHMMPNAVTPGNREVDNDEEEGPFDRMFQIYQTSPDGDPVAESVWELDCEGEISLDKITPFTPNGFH
# 320 non-olfactory GPCRs = 320 non-olfactory GPCRs (Homo sapiens, UniProt P21453); conditions: receptor S1PR1; Fig_5f, single replicate values
# Chain of 320 non-olfactory GPCRs (P21453 whole entry): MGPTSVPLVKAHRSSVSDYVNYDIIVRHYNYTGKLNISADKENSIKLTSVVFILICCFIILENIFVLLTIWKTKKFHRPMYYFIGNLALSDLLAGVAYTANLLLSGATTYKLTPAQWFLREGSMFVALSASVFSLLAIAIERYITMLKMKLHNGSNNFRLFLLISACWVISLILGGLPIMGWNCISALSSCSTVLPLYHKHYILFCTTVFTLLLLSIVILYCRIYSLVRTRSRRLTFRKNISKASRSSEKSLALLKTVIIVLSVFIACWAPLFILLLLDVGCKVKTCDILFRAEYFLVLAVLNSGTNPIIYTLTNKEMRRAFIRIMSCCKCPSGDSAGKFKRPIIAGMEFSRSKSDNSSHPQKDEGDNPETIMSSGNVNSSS
Compound,agonism after serine to glycine substitution (DRD2 S1975.46G),"Fig_S10d concentration-response source data, compound alone (replicates) (DRD1; Log[Drug] -6.52)","Fig_S10d concentration-response source data, compound alone (replicates) (DRD1; Log[Drug] -7)","Fig_S10d concentration-response source data, compound alone (replicates) (DRD1; Log[Drug] -7.52)","Fig_S10d concentration-response source data, compound alone (replicates) (DRD1; Log[Drug] -8)","Fig_S10d concentration-response source data, compound alone (replicates) (DRD1; Log[Drug] -8.52)","Fig_S10d concentration-response source data, compound alone (replicates) (DRD1; Log[Drug] -9)","Fig_S10d concentration-response source data, compound alone (replicates) (DRD1; Log[Drug] -9.52)","Fig_S10d concentration-response source data, compound alone (replicates) (DRD1; Log[Drug] -10)","Fig_S10d concentration-response source data, compound alone (replicates) (DRD1; Log[Drug] -10.52)","Fig_S10d concentration-response source data, compound alone (replicates) (DRD1; Log[Drug] -11)","Fig_S10d concentration-response source data, compound alone (replicates) (DRD1; Log[Drug] -11.52)","Fig_S10d concentration-response source data, compound alone (replicates) (DRD1; Log[Drug] -12)","β-arrestin2 recruitment response, agonist mode (normalized) (DRD5; Log[Drug] -6.52)","β-arrestin2 recruitment response, agonist mode (normalized) (DRD5; Log[Drug] -7)","β-arrestin2 recruitment response, agonist mode (normalized) (DRD5; Log[Drug] -7.52)","β-arrestin2 recruitment response, agonist mode (normalized) (DRD5; Log[Drug] -8)","β-arrestin2 recruitment response, agonist mode (normalized) (DRD5; Log[Drug] -8.52)","β-arrestin2 recruitment response, agonist mode (normalized) (DRD5; Log[Drug] -9)","β-arrestin2 recruitment response, agonist mode (normalized) (DRD5; Log[Drug] -9.52)",also measured
CCOc1cccc2cc([C@H](C)NCC3(O)CCCCC3)oc12 [O4SE6],impaired,1.081,1.077 and 2.449 and 0.7206 and 0.01093 and 0.2616 and 0.5709 and 0.4663 and -0.4785 and 0.5459,0.3818 and 0.7249 and 2.612 and 1.107 and 0.1296 and 1.638 and 0.2406 and 0.3904 and 0.4963,4.337 and 0.3775 and 1.059 and 0.9723 and 0.606 and 0.3811 and 0.01404 and 0.5796 and 0.0103,1.411 and 0.7206 and 3.809 and 2.0766 and 0.164 and 0.2319 and -0.01873 and 0.09082 and 0.3165,-0.3131 and 1.5871 and 3.29 and -0.05311 and -0.07654 and 0.3577 and 0.09363 and 0.0515 and 0.4204,3.9849 and 1.227 and 1.561 and 0.082 and -0.1093 and 0.5131 and -0.06273 and 0.7238 and 1.497,3.981 and 1.729 and 5.684 and -0.04842 and 0.2671 and 0.3249 and 0.426 and 0.4251 and 0.5346,0.712 and 1.746 and 4.122 and 0.3608 and 0.264 and 0.2335 and 1.101 and -0.02996 and 0.2809,2.269 and 1.742 and 3.972 and 0.1742 and 0.3296 and 0.01406 and 0.6835 and 1.257 and -0.2856,0.3861 and 1.068 and 2.775 and -0.2327 and -0.01484 and 0.1414 and 0.7734 and -0.7734 and -0.2032,1.754 and 0.5705 and -0.2917 and 0.1156 and 0.2702 and 0.1429 and -0.6489 and -0.1919 and -0.08146,-0.08982,-2.193 and 0.1162 and 2.002 and 1.631 and 1.978 and 0.5459 and 0.4001 and 1.786 and 0.382,-0.08982 and 3.931 and 2.6523 and 1.599 and 1.463 and 1.719 and -0.1199 and 3.905 and 0.3346,-0.07925 and -1.147 and -0.7291 and 1.435 and 1.941 and 1.528 and 1.952 and 2.3308 and 0.6078,-0.1004 (2×) and 1.601 and 1.441 and 1.882 and 1.748 and 1.175 and 1.334 and 1.6784,3.899 and 5.394 and 1.786 and 1.099 and 0.04193 and 2.45 and 0.1533 and 0.5646 and 0.6189,2.219 and 0.0951 and 1.997 and 0.5791 and 1.124 and 2.067 and 5.639 and 0.941 and -0.06273,"β-arrestin2 recruitment response, agonist mode (normalized) (DRD5; Log[Drug] -10): -0.7133 and 0.5389 and 5.595 and 1.6 and 2.167 and 2.288 and 0.7068 and 0.5423 and 3.676; β-arrestin2 recruitment response, agonist mode (normalized) (DRD5; Log[Drug] -10.52): 0.1321 and 0.1268 and 0.9299 and 1.442 and 0.235 and 1.403 and 0.9967 and 3.2411 and 1.093; β-arrestin2 recruitment response, agonist mode (normalized) (DRD5; Log[Drug] -11): 0.1268 and 0.1004 and 7.307 and 0.5831 and 0.6598 and 1.285 and 1.949 and 0.03067 and 2.569; β-arrestin2 recruitment response, agonist mode (normalized) (DRD5; Log[Drug] -11.52): 3.508 and 1.358 and 1.781 and 0.8196 and 0.1076 and 1.003 and 0.8127 and 3.51 and 1.499; β-arrestin2 recruitment response, agonist mode (normalized) (DRD5; Log[Drug] -12): -0.3064 and 5.8435 and 1.717 and 0.4312 and 3.455 and 0.3038 and 0.3541 and 3.032 and 0.3527"
CCOc1cccc2cc([C@@H](C)NCC3(O)CCCCC3)oc12 [O4RE6],impaired,1.905,1.064 and 2.282 and -0.6391 and 0.289 and -0.08278 and 0.4865 and -0.4054 and 1.577 and 0.01217,1.077 and 0.9051 and -0.1158 and 0.04295 and -0.04452 and 0.1062 and 0.53 and 4.578 and 0.07397,0.3903 and 0.04289 and 0.7249 and 0.1109 and 0.1132 and -0.0164 and 0.2378 and 0.7481 and 0.5777,1.047 and 2.106 and 1.068 and 0.04686 and -0.2007 and -0.1148 and -0.01592 and 0.004682 and 0.05431,0.3903 and 1.591 and 1.077 and 0.9231 and 0.04452 and 0.3311 and -0.4785 and 2.978 and 0.1554,0.3689 and -0.1244 and 0.7292 and 0.2936 and 0.3303 and 0.01406 and 0.5824 and 0.412 and 0.617,7.429 and 0.8836 and 0.03432 and 0.6724 and -0.1109 and 0.4569 and -0.09176 and 0.9157 and -0.1386,-0.3217 and 1.253 and 1.072 and 0.2647 and -0.2624 and -0.04452 and -0.9541 and 0.426 and 0.1283,0.05147 and 1.072 and 2.964 and 0.7974 and -0.07497 and -0.2936 and -0.2444 and 1.441 and -0.4363,1.244 and 0.2102 and -0.6649 and -0.01562 and -0.1695 and 0.02187 and -0.1648 and 0.6545 and -0.5449,0.04289 and 4.504 and 6.396 and -0.1351 and 0.3358 and -0.1991 and -0.1554 and -0.2734 and -0.1919,3.307,3.556 and 3.7037 and 0.3329 and 4.539 and 1.619 and 0.7476 and 0.7305 and 1.517 and 0.06412,3.831 and -0.7608 and 1.183 and 2.699 and 1.3394 and 0.2373 and -0.5855 and 0.1756 and 0.6817,-0.354 and 4.126 and 1.796 and 1.252 and 1.785 and 1.286 and -0.552 and 0.7932 and 1.175,4.945 and 4.734 and 2.002 and 0.8283 and 1.858 and 0.3616 and -0.1241 and 0.7932 and 0.1701,-0.5336 and 1.162 and 2.8425 and 2.532 and 0.2334 and 1.094 and -1.004 and 0.5702 and 1.069,1.189 and -0.1004 and 3.714 and 0.519 and 0.6511 and 2.841 and 3.8684 and 0.6677 and 1.209,"β-arrestin2 recruitment response, agonist mode (normalized) (DRD5; Log[Drug] -10): 1.189 and -0.7027 and -2.2032 and 1.378 and 0.875 and 0.4502 and -0.1213 and -0.3875 and 2.24; β-arrestin2 recruitment response, agonist mode (normalized) (DRD5; Log[Drug] -10.52): 0.7608 and -0.5125 and 1.416 and 1.597 and 1.308 and 1.974 and 3.531 and 1.161 and 0.5451; β-arrestin2 recruitment response, agonist mode (normalized) (DRD5; Log[Drug] -11): -0.3117 and 1.606 and -1.358 and 0.3916 and 1.977 and 2.8 and -0.009758 and 3.703 and 3.711; β-arrestin2 recruitment response, agonist mode (normalized) (DRD5; Log[Drug] -11.52): -1.77 and 3.926 and 0.7503 and 1.5356 and 0.746 and 0.6788 and -0.4001 and 8.516 and 5.095; β-arrestin2 recruitment response, agonist mode (normalized) (DRD5; Log[Drug] -12): -0.9088 and 2.256 and -1.342 and 2.237 and 0.341 and 1.2057 and -1.023 and 0.1729 and 0.8517"
CCOc1ccccc1CCC(C)NCC1(O)CCCCC1.Cl (racemic) [Fig_5f],,,,,,,,,,,,,,,,,,,,,GPCRome screening signal at S1PR1 (320 non-olfactory GPCRs): 0.7005 and 1.113 and 2.609 and 1.363
